Measured values as given in publication PMC6271756, “Synthesis of Caffeic Acid Amides Bearing 2,3,4,5-Tetra-hydrobenzo[b][1,4]dioxocine Moieties and Their Biological Evaluation as Antitumor Agents” (Molecules, 2014).

Key:
Hela = assay: Cell proliferation assay (CCK8), Hela; type: cell-based; conditions: Homo sapiens, cells incubated with compounds for 24 h
Method: (§1) CCK8 is much more convenient and helpful than MTT for analyzing cell proliferation, because it can be reduced to soluble formazan by dehydrogenase in mitochondria and has little toxicity to cells. Cell proliferation was determined using CCK8 dye (Beyotime Inst. Biotech., Nanjing, China) according to the manufacturer's instructions. Briefly, 1–5 × 10^3 cells per well were seeded on a 96-well plate, and grown at 37 °C for 12 h. Subsequently, cells were treated with all synthesized compounds at increasing concentrations in the presence of 10% FBS for 24 h. After addition of 10 μL CCK8 dyeto each well, cells were incubated at 37 °C for 2 h and plates were read on a Victor-V multilabel counter (Perkin-Elmer, Männedorf, Switzerland) using the default […]. Percent inhibition or IC50 values of compounds were calculated by comparison with DMSO-treated control wells.

HepG2 = assay: Cell proliferation assay (CCK8), HepG2; type: cell-based; conditions: for IC50: Homo sapiens, HepG2, cells incubated with compounds for 24 h, CCK8
Method: as §1

A431 = assay: Cell proliferation assay (CCK8), A431; type: cell-based; conditions: Homo sapiens, A-431, cells incubated with compounds for 24 h
Method: as §1

EGFR = biological target: T1, EGFR (Homo sapiens, UniProt P00533); assay: EGFR kinase autophosphorylation assay (DELFIA/Time Resolved Fluorometry); type: biochemical; conditions: enzyme incubated with compounds for 70 min
T1 construct: EGFR cytoplasmic domain (EGFR-CD, amino acids 645–1186); (His)6 (N); made in house; host or cells: Sf-9 insect cells (baculovirus)
Method: A sequence that encodes (His)6 was located at the 5' upstream to the EGFR sequences. Sf-9 cells were infected for 3 days for protein expression. Sf-9 cell pellets were solubilized at 0 °C in a buffer at pH 7.4 containing 50 mM HEPES, 10 mM NaCl, 1% Triton, 10 μM ammonium molybdate, 100 μM sodium vanadate, 10 μg/mL aprotinin, 10 μg/mL leupeptin, 10 μg/mL pepstatin, and 16 μg/mL benzamidine HCl for 20 min followed by 20 min centrifugation. Crude extract supernatant was passed through an equilibrated Ni-NTA superflow packed column and washed with 10 mM and then 100 mM imidazole to remove nonspecifically bound material. Histidine tagged proteins were eluted with 250 and 500 mM imidazole and dialyzed against 50 mM NaCl, 20 mM HEPES, 10% glycerol, and 1 μg/mL each of aprotinin, leupeptin, and pepstatin for 2 h. The entire purification procedure was performed at 4 °C or on ice.
EGFR kinase assays was set up to assess the level of autophosphorylation based on DELFIA/Time Resolved Fluorometry. […] In each well, 10 μL compound was incubated with 10 μL (5 ng for EGFR) recombinant enzyme (1:80 dilution in 100 mM HEPES) for 10 min at room temperature. Then, 10 μL of 5× buffer (containing 20 mM HEPES, 2 mM MnCl2, 100 μM Na3VO4, and 1 mM DTT) and 20 μL of 0.1 mM ATP-50 mM MgCl2 were added for 1 h. Positive and negative controls were included in each plate by incubation of enzyme with or without ATP-MgCl2.
At the end of incubation, liquid was aspirated, and plates were washed three times with wash buffer. A 75 μL (400 ng) sample of europium labeled anti-phosphotyrosine antibody was added to each well for another 1 h of incubation. After washing, enhancement solution was added and the signal was detected by Victor (Wallac Inc., Männedorf, Switzerland) with excitation at 340 nm and emission at 615 nm. The percentage of autophosphorylation inhibition by the compounds was calculated using the following equation: 100% − [[…]] (1)
The IC50 was obtained from curves of percentage inhibition with eight concentrations of compound.

HepG2 cell = assay: Apoptosis assay by flow cytometry (AnnexinV-FITC/PI); type: cell-based
Method: Approximately 10^5 cells/well were plated in a 24 well plate and allowed to adhere. After 24 h, the medium was replaced with fresh culture medium containing compounds D9 at final concentrations of 4, 6, 8 μM. Nontreated wells received an equivalent volume of ethanol (<0.1%). They were trypsinized, washed in PBS and centrifuged at 2,000 rpm for 5 min. The pellet was then resuspended in 500 μL of staining solution (containing 5 μL AnnexinV-FITC and 5 μL PI in Binding Buffer), mixed gently and incubated for 15 min at room temperature (15–25 °C) in dark. The sample were then read in FACScalibur flow cytometer (BD Company, New Jersey, USA) at 488 nm excitation.

HepG2 cell migration = assay: Cell migration assay (Trans well); type: cell-based; conditions: 0.06, 0.08, 0.1 μM, 24 h
Method: A cell migration assay was conducted as described previously (Qian et al.), with a slight modification. In brief, the cells were serum-starved overnight, and the transwells were coated with […] (ECL) cell attachment matrix (Upstate Biotechnology, Lake Placid, NY, USA) at 20 μg/mL. The top chambers of transwells were loaded with 0.2 mL of cells (4 × 10^5 cells/mL) in serum-free media, and the bottom chambers were loaded with 0.6 mL of MEM media containing 0.5% FBS. The cells were incubated in the transwells at 37 °C in 5% CO2 for 24 h. A microplate reader was used to measure the optical density of the eluted solutions in order to determine their migration values. Mean values were obtained from three individual experiments.

T1 sequence (P00533 669-1210): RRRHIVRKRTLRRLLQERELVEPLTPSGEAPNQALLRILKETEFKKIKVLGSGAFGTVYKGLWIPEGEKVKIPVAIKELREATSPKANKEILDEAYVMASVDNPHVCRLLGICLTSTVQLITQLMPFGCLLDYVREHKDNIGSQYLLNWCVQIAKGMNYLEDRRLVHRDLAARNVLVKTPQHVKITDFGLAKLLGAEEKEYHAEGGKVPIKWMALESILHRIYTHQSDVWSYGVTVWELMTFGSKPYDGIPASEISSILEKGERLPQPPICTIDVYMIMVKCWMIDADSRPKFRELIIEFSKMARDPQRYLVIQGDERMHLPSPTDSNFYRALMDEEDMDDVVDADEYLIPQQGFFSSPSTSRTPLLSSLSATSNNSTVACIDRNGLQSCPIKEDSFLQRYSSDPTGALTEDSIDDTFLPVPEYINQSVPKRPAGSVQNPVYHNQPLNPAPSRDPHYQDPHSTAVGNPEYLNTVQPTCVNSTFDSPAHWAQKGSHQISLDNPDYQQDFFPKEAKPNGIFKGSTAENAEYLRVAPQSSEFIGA

Compound | IC50 (Hela) [µM] | IC50 (HepG2) [µM] | IC50 (A431) [µM] | IC50 (EGFR) [µM] | melting point [°C] | effect on HepG2 cell survival ratios (CCK8 assay) (HepG2; concentrations lower than 0.1 μM) | percentage of cell apoptosis (HepG2 cell; HepG2, 4 μM) [%] | percentage of cell apoptosis (HepG2 cell; HepG2, 6 μM) [%] | percentage of cell apoptosis (HepG2 cell; HepG2, 8 μM) [%] | amount of migrating HepG2 cells vs control (HepG2 cell migration)
O=C(O)/C=C/c1ccc2c(c1)OCCCCO2 [C, (E)-3-(2,3,4,5-tetrahydrobenzo[b][1,4]dioxocin-8-yl)acrylic acid] | 105 | 56 | 41 | – | – | – | – | – | – | –
O=C(O)/C=C/c1ccc(O)c(O)c1 [Caffeic acid] | 544 | 225 | 93.5 | – | – | – | – | – | – | –
O=C(/C=C/c1ccc2c(c1)OCCCCO2)Nc1ccc([N+](=O)[O-])cc1 [Compound D1, (E)-N-(4-nitrophenyl)-3-(2,3,4,5-tetrahydrobenzo[b][1,4]dioxocin-8-yl)acrylamide] | 13.6 | 3.47 | 16.6 | 7.25 | 125 to 126 | – | – | – | – | –
O=C(/C=C/c1ccc2c(c1)OCCCCO2)Nc1ccccc1[N+](=O)[O-] [Compound D2, (E)-N-(2-nitrophenyl)-3-(2,3,4,5-tetrahydrobenzo[b][1,4]dioxocin-8-yl)acrylamide] | 28.2 | 9.4 | 24.7 | – | 119 to 120 | – | – | – | – | –
COc1ccc(NC(=O)/C=C/c2ccc3c(c2)OCCCCO3)cc1OC [Compound D3, (E)-N-(3,4-dimethoxyphenyl)-3-(2,3,4,5-tetrahydrobenzo[b][1,4]dioxocin-8-yl)acrylamide] | 19.6 | 10.2 | 8.96 | – | 171 to 172 | – | – | – | – | –
COc1cc(NC(=O)/C=C/c2ccc3c(c2)OCCCCO3)cc(OC)c1 [Compound D4, (E)-N-(3,5-dimethoxyphenyl)-3-(2,3,4,5–tetrahydrobenzo[b][1,4]dioxocin-8-yl)acrylamide] | 23.7 | 11.1 | 10 | – | 115 to 116 | – | – | – | – | –
COc1ccc(OC)c(NC(=O)/C=C/c2ccc3c(c2)OCCCCO3)c1 [Compound D5, (E)-N-(2,5-dimethoxyphenyl)-3-(2,3,4,5-tetrahydrobenzo[b][1,4]dioxocin-8-yl)acrylamide] | 21.4 | 10.5 | 9.31 | – | 110 to 111 | – | – | – | – | –
COc1cc(NC(=O)/C=C/c2ccc3c(c2)OCCCCO3)cc(OC)c1OC [Compound D6, (E)-3-(2,3,4,5-tetrahydrobenzo[b][1,4]dioxocin-8-yl)-N-(3,4,5-trimethoxyphenyl)acrylamide] | 25.7 | 13.2 | 11.7 | – | 145 to 146 | – | – | – | – | –
COc1cccc(NC(=O)/C=C/c2ccc3c(c2)OCCCCO3)c1 [Compound D7, (E)-N-(3-methoxyphenyl)-3-(2,3,4,5-tetrahydrobenzo[b][1,4]dioxocin-8-yl)acrylamide] | 8.71 | 3.16 | 12.6 | 6.78 | 104 to 105 | – | – | – | – | –
COc1ccc(NC(=O)/C=C/c2ccc3c(c2)OCCCCO3)cc1 [Compound D8, (E)-N-(4-methoxyphenyl)-3-(2,3,4,5-tetrahydrobenzo[b][1,4]dioxocin-8-yl)acrylamide] | 7.04 | 0.95 | 7.42 | 0.85 | 112 to 113 | – | – | – | – | –
CCOc1ccc(NC(=O)/C=C/c2ccc3c(c2)OCCCCO3)cc1 [Compound D9, (E)-N-(4-ethoxyphenyl)-3-(2,3,4,5-tetrahydrobenzo[b][1,4]dioxocin-8-yl)acrylamide] | 6.75 | 0.79 | 7.03 | 0.36 | 137 to 139 | no effect | 17.99 | 26.83 | 41.1 | less than control group
O=C(/C=C/c1ccc2c(c1)OCCCCO2)Nc1cccc(Cl)c1 [Compound D10, (E)-N-(3-chlorophenyl)-3-(2,3,4,5-tetrahydrobenzo[b][1,4]dioxocin-8-yl)acrylamide] | 18.5 | 6.87 | 20 | 12.4 | 109 to 110 | – | – | – | – | –
O=C(/C=C/c1ccc2c(c1)OCCCCO2)Nc1ccccc1Cl [Compound D11, (E)-N-(2-chlorophenyl)-3-(2,3,4,5-tetrahydrobenzo[b][1,4]dioxocin-8-yl)acrylamide] | 16.7 | 4.94 | 18.9 | 8.97 | 127 to 128 | – | – | – | – | –
Cc1cccc(NC(=O)/C=C/c2ccc3c(c2)OCCCCO3)c1 [Compound D12, (E)-3-(2,3,4,5-tetrahydrobenzo[b][1,4]dioxocin-8-yl)-N-m-tolylacrylamide] | 10.8 | 6.28 | 14.2 | 12 | 112 to 113 | – | – | – | – | –
Cc1ccc(Cl)cc1NC(=O)/C=C/c1ccc2c(c1)OCCCCO2 [Compound D13, (E)-N-(5-chloro-2-methylphenyl)-3-(2,3,4,5-tetrahydrobenzo[b][1,4]dioxocin-8-yl)acrylamide] | 24.3 | 15.2 | 14.1 | – | 107 to 108 | – | – | – | – | –
O=C(/C=C/c1ccc2c(c1)OCCCCO2)Nc1ccc(Br)cc1F [Compound D14, (E)-N-(4-bromo-2-fluorophenyl)-3-(2,3,4,5-tetrahydrobenzo[b][1,4]dioxocin-8-yl)acrylamide] | 30.8 | 9.03 | 22.6 | – | 110 to 111 | – | – | – | – | –
O=C(/C=C/c1ccc2c(c1)OCCCCO2)NCc1ccccc1F [Compound D15, (E)-N-(2-fluorobenzyl)-3-(2,3,4,5-tetrahydrobenzo[b][1,4]dioxocin-8-yl)acrylamide] | 5.15 | 1.48 | 17.8 | 2.18 | 86 to 87 | – | – | – | – | –
O=C(/C=C/c1ccc2c(c1)OCCCCO2)Nc1ccc(Br)cc1 [Compound D16, (E)-N-(4-bromophenyl)-3-(2,3,4,5-tetrahydrobenzo[b][1,4]dioxocin-8-yl)acrylamide] | 9.04 | 2.38 | 7.96 | 3.52 | 107 to 108 | – | – | – | – | –
O=C(/C=C/c1ccc2c(c1)OCCCCO2)Nc1cccc(F)c1 [Compound D17, (E)-N-(3-fluorophenyl)-3-(2,3,4,5-tetrahydrobenzo[b][1,4]dioxocin-8-yl)acrylamide] | 19.5 | 7.9 | 21.6 | – | 116 to 117 | – | – | – | – | –
C#Cc1cccc(Nc2ncnc3cc(OCCOC)c(OCCOC)cc23)c1 [Erlotinib, reference compound] | – | 0.08 | 0.04 | – | – | – | – | – | – | –
